The values that follow come from patent US7262183B2, “Substituted 5-membered n-heterocyclic compounds and their uses for treating or preventing neurodegenerative diseases” (Instititute of Pharmacology and Toxicology, priority 2001, dated 2007).

The test system of experiment [1] is chick embryos dorsal root ganglia. The experiment in a line: chick embryos dorsal root ganglion cultures free of serum, neurite process growth. In kind it is cell-based. Particulars: for Average scoring: 48 h, neurite score 0-3, average of 10 ganglia, control (NGF only) 0.33. On the procedure:
The neurotrophic activity of compounds of the present invention can be determined through several biological models in vitro, e.g. the model of chick embryos dorsal root ganglion cultures free of serum in vitro.
In a sterile environment, dorsal root ganglia were dissected from chick embryos of 8 days gestation and inoculated in rat rail collagen coated culture bottles (5 to 6 dorsal root ganglia per bottle, and two bottles per dosage). After 1 hour of attachment in a 37° C., 5% CO2 incubator, NGF (0.15 ng/ml) containing culture medium free of serum (DMEM) and the compound of the present invention were added. The control groups were treated only with the same amount of NGF and culture medium. […] Five to six DRGs were cultured per bottle, and each treatment was performed in duplicate. The results of illustrative compound of example 15 promoting the growth of chick embryos dorsal root ganglia processes were outlined in table 1, wherein the scoring is the average scoring of 10 ganglia.
FIG. 1 indicates the growth of neurites of chick dorsal root ganglia under various dosages of the compound of example 15. A represents that chick embryos dorsal root ganglia with rare processes is caused by the treatment of sole NGF (0.15 ng/mL).

Experiment [2] deals with adult mice sympathetic nerve endings damaged by 6-hydroxy-dopamine (6-OHDA). The experiment in a line: adult mice sympathetic nerve endings damaged by 6-OHDA, residual noradrenaline in submaxillary glands. In kind it is in vivo. Particulars: 10 mg/kg subcutaneous injection; 6-OHDA 8 mg/kg intraperitoneal; measured two weeks after last administration, HPLC-electrochemical detector. On the procedure:
The neurotrophic activity of the compounds of the present invention can also be determined in several animal pharmacological models in vivo, such as the model of adult mice sympathetic nerve endings damaged by 6-hydroxy-dopamine (6-OHDA).
Kunming species female mice (□) having a body weight of 18-22 g are randomly divided into the following groups: normal control group, model control group, FK506 (2 mg/kg) group, and the group of compound of the present invention (10 mg/kg) (10 mice per group). The mice are administrated with 6-OHDA (8 mg/kg) by intraperitoneal injection before 4 hours and after 4 continuous days of subcutaneous injection of the compound, while the control groups are administrated with the equivalent quantity of carrier by subcutaneous injection. After two weeks of the last administration, the mice are killed by luxation, and the two submaxillary glands of each of the mice are rapidly excised and weighed, placed in a glass grinder, then is homogenated with a homogenating liquid containing internal-standard, and centrifuged at 2000 g for 30 minutes. 20 μL of the obtained supernatant is directly injected in an HPLC-electrochemical detector to measure the content of noradrenaline (NE) in the submaxillary glands of the mice. […]

In the case of `CC(C)(C)C(=O)C(=O)N1CSC(C)(C)[C@@H]1C(=O)OCCCc1cccnc1` [Example 15, 3-(3-pyridyl)-1-propyl (2S)-5,5-dimethyl-1-(3,3-dimethyl-1,2-dioxobutyl)-2-(4-thiazolidine)carboxylate], the results for the Average scoring in experiment [1] (1 pM compound + NGF (0.15 ng/mL) in DMEM), in experiment [1] (10 pM compound + NGF (0.15 ng/mL) in DMEM) and in experiment [1] (100 pM compound + NGF (0.15 ng/mL) in DMEM) were 1.00, 1.31 and 1.57, respectively. For the same molecule, the “growth of neurites of chick dorsal root ganglia (FIG. 1)” value in experiment [1] (1 pM compound + NGF (0.15 ng/mL), FIG. 1 B) is “enhances the improving effect of sole NGF (0.15 ng/mL) on the growth of neurites”; in experiment [1] (10 pM compound + NGF (0.15 ng/mL), FIG. 1 C, compared with 1 pM), “stronger effect on the growth of neurites”; in experiment [1] (100 pM compound + NGF (0.15 ng/mL), FIG. 1 D, compared with A, B and C), “strongest effect”. Further, in experiment [2], the “level of residual NE in the submaxillary glands of the mice (FIG. 2)” value is “raise the residual NE level”.
As for `CC(C)(C)C(=O)C(=O)N1CSC(C)(C)[C@@H]1C(=O)OCCCc1ccccc1` [Example 17, 3-phenyl-1-propyl (2S)-5,5-dimethyl-1-(3,3-dimethyl-1,2-dioxobutyl)-2-(4-thiazolidine)carboxylate], the “level of residual NE in the submaxillary glands of the mice (FIG. 2)” value in experiment [2] is reported as “raise the residual NE level”.
